Molecular target: T1, ACO2 (Arabidopsis thaliana, UniProt Q94A28)
T1 construct: untagged recombinant from pET15b (NcoI-XhoI), E. coli BL21(DE3); forward primer encodes start MASEHSY (transit peptide removed)
T1 sequence (Q94A28 98-995): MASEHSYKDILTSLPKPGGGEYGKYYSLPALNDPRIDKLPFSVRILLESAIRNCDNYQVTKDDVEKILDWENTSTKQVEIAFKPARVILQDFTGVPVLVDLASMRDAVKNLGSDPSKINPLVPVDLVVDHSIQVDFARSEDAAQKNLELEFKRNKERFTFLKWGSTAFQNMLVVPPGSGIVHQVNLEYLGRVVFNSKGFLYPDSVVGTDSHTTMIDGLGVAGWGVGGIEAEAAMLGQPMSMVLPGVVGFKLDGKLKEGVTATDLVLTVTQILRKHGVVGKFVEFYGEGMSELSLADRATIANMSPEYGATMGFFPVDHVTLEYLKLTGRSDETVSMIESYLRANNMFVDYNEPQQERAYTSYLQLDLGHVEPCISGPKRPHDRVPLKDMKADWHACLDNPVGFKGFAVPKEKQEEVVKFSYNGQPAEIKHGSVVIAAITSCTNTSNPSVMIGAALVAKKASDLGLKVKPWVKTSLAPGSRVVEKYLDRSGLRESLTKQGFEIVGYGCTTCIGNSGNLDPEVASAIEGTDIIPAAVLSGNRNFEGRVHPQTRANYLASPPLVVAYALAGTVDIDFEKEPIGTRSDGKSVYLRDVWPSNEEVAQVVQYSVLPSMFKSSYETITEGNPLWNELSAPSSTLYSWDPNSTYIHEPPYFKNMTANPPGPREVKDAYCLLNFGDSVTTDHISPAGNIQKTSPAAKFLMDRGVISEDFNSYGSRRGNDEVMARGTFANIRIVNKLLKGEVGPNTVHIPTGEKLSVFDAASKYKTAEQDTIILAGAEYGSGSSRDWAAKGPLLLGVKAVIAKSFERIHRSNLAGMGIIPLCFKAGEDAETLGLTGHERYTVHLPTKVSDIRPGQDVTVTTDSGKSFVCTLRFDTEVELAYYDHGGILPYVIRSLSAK
Experiment: absorbance at […] nm
Format: biochemical
Settings: from citrate or isocitrate; [4Fe-4S]-loaded enzyme

## O=C(O)/C=C(/CC(=O)O)C(=O)O [cis-aconitate]
  absorbance at 240 nm: following the formation of cis-aconitate from citrate or isocitrate

Reference: PMC7939391, “[4Fe-4S] cluster trafficking mediated by Arabidopsis mitochondrial ISCA and NFU proteins” (The Journal of Biological Chemistry, 2021)
